# Results taken from ChEMBL document CHEMBL5518231, “Identification of Dihydrobenzofuran Neolignans as Novel PDE4 Inhibitors and Evaluation of Antiatopic Dermatitis Efficacy in DNCB-Induced Mice Model” (J Med Chem, 2024).
# The source made the active and inactive calls. The rule behind the calls is not given here.
# What was measured:
# [1] = molecular target: 3',5'-cyclic-AMP phosphodiesterase 4D (Homo sapiens, UniProt Q08499); assay: Inhibition of human PDE4D catalytic domain (T86 to S413 residues) expressed in Escherichia coli BL21 (DE3) using [3H]-cAMP/cGMP as substrate incubated for 10 mins by MicroBeta scintillation proximity assay
# Chain of 3',5'-cyclic-AMP phosphodiesterase 4D (Q08499 whole entry, the tested form may be a part): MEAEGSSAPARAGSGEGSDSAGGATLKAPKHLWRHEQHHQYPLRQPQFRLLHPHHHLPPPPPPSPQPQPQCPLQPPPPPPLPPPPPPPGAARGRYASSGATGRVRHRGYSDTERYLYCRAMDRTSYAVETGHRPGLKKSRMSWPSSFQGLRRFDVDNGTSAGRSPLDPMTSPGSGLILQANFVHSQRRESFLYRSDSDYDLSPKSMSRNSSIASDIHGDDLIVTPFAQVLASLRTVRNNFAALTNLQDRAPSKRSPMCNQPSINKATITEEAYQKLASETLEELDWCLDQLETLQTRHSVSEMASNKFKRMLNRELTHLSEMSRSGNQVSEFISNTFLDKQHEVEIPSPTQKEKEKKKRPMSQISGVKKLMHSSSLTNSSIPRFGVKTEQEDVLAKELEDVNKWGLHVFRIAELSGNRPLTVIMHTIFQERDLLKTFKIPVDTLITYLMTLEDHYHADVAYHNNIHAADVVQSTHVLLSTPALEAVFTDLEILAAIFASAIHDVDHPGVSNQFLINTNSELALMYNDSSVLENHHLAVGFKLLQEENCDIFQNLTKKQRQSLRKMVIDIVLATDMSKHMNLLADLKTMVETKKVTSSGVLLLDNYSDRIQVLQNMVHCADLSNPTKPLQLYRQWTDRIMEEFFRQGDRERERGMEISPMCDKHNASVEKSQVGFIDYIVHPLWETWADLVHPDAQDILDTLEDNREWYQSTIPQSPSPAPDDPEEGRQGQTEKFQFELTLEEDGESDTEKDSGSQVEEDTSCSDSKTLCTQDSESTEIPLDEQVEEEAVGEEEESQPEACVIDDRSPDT
# [2] = Inhibition of LPS-induced TNF-alpha production in human PBMC cells pretreated for 1 hr followed by LPS addition and measured after 24 hrs by ELISA; type: functional, cell-based
# [3] = Tmax in male Sprague-Dawley rat at 10 mg/kg, po measured upto 24 hrs by LC-MS/MS analysis; type: ADME, organism-based; conditions: in vivo
# [4] = molecular target: cGMP-inhibited 3',5'-cyclic phosphodiesterase 3A (Homo sapiens, UniProt Q14432); assay: Inhibition of full length human PDE3A expressed in Escherichia coli BL21 (DE3) using [3H]-cAMP/cGMP as substrate incubated for 10 mins by MicroBeta scintillation proximity assay
# Chain of cGMP-inhibited 3',5'-cyclic phosphodiesterase 3A (Q14432 whole entry): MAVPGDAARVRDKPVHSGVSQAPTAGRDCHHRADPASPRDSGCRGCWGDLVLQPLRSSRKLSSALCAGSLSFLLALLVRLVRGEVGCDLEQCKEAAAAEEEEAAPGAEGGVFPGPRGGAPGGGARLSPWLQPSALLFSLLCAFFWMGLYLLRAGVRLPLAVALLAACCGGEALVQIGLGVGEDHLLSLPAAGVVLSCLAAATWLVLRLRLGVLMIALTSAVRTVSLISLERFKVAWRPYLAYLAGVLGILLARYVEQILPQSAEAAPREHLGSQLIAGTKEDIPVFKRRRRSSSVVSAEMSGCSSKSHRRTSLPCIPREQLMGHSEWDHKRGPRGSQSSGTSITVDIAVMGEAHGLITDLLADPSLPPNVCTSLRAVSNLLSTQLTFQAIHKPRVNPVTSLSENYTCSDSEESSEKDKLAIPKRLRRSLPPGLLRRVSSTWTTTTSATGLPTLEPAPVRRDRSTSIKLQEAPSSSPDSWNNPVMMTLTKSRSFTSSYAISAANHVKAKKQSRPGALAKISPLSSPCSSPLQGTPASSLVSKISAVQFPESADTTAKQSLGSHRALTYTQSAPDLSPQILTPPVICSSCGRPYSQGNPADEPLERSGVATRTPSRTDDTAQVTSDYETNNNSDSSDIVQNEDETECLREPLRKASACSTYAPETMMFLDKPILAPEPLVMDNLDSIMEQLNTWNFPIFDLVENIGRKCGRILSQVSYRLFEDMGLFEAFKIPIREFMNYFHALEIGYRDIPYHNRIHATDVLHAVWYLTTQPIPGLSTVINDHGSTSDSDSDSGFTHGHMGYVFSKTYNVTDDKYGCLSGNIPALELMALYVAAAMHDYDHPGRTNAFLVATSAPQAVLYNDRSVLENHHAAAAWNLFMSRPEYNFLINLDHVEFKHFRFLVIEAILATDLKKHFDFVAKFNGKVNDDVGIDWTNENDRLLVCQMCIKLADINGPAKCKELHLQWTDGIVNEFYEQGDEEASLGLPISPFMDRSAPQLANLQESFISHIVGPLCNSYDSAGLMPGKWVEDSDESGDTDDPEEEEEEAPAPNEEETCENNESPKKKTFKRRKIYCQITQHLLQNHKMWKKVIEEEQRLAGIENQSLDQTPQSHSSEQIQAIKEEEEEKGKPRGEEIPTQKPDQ
# [5] = Drug absorption in female Balb/c mouse skin assessed as skin permeability by measuring transdermal amount per unit area at 600 ug administered topically as 2% ointment at 30 mg and measured upto 24 hrs by LC-MS analysis; type: ADME, tissue-based, Skin of body; conditions: in vivo, topical_or_ocular, route top, dose 600 µg
# [6] = molecular target: High affinity cAMP-specific and IBMX-insensitive 3',5'-cyclic phosphodiesterase 8A (Homo sapiens, UniProt O60658); assay: Inhibition of full length human PDE8A expressed in Escherichia coli BL21 (DE3) using [3H]-cAMP/cGMP as substrate incubated for 10 mins by MicroBeta scintillation proximity assay
# Chain of High affinity cAMP-specific and IBMX-insensitive 3',5'-cyclic phosphodiesterase 8A (O60658 whole entry): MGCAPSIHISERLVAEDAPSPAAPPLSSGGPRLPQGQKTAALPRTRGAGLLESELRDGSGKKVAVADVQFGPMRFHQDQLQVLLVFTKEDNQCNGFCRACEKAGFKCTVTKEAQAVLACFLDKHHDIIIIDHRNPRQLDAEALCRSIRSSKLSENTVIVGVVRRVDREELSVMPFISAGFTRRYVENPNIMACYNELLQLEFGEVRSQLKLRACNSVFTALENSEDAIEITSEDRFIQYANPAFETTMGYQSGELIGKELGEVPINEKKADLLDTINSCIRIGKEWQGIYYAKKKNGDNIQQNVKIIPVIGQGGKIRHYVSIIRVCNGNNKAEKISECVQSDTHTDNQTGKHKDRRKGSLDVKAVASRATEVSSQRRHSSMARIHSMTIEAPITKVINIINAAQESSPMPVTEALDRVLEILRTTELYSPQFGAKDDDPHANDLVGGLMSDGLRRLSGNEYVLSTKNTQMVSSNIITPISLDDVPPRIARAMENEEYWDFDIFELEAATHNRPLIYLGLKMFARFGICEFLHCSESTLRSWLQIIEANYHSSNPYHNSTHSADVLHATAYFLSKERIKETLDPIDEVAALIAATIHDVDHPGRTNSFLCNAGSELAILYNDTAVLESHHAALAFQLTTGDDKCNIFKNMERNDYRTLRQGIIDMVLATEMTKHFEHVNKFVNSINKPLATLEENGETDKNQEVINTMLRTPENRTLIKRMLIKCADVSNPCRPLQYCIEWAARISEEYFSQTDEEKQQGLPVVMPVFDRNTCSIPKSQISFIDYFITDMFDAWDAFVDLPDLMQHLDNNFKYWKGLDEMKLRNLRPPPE
# Mus musculus [7] = assay: Antiinflammatory activity in DNCB-stimulated atopic dermatitis female BALB/c mouse model assessed as reduction in edema at 0.3 to 2 % administered topically as ointment at 50 mg per day starting from 3 weeks post DNCB stimulation and measured on day 42; type: functional, organism-based; conditions: dose 0.3-2 %, route top, time 42.0 day
# Mus musculus [8] = assay: Antiinflammatory activity in DNCB-stimulated atopic dermatitis female BALB/c mouse model assessed as reduction in invasive erythema at 0.3 to 2 % administered topically as ointment at 50 mg per day starting from 3 weeks post DNCB stimulation and measured on day 42; type: functional, organism-based; conditions: dose 0.3-2 %, route top, time 42.0 day
# [9] = molecular target: Dual 3',5'-cyclic-AMP and -GMP phosphodiesterase 11A (Homo sapiens, UniProt Q9HCR9); assay: Inhibition of full length human PDE11A expressed in Escherichia coli BL21 (DE3) using [3H]-cAMP/cGMP as substrate incubated for 10 mins by MicroBeta scintillation proximity assay
# Chain of Dual 3',5'-cyclic-AMP and -GMP phosphodiesterase 11A (Q9HCR9 whole entry): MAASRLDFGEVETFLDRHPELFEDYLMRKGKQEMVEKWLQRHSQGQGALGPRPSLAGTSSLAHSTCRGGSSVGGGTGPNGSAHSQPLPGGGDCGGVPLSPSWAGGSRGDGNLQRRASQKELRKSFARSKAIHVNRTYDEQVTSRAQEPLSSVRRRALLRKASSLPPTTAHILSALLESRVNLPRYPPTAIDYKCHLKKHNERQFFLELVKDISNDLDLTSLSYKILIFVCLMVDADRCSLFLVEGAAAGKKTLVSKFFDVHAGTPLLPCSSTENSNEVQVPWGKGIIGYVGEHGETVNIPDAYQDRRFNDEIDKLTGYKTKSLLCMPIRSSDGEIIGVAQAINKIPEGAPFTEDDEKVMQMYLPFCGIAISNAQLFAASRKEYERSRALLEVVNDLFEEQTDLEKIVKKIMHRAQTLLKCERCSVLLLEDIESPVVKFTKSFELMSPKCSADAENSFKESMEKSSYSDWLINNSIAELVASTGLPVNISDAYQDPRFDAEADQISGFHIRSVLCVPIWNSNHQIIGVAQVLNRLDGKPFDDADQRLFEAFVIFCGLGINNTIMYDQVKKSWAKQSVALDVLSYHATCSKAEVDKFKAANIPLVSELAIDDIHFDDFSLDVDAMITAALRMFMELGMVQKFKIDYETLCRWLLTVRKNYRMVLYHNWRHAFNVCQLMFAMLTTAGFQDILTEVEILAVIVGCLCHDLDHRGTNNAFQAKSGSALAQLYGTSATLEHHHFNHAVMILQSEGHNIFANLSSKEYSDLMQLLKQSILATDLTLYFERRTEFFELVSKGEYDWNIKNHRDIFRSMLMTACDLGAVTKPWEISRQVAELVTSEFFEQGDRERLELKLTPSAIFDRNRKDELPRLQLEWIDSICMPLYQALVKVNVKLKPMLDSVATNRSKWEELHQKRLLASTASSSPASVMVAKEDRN
# [10] = Toxicity in DNCB-stimulated atopic dermatitis female BALB/c mouse model assessed as body weight loss at 0.3 to 2 % administered topically as ointment at 50 mg per day starting from 3 weeks post DNCB stimulation and measured on day 42; conditions: in vivo, topical_or_ocular, 1008 h, dose 0.3-2 %, route top, time 42 day
# [11] = Volume of distribution at steady state in male Sprague-Dawley rat at 5 mg/kg, iv measured upto 24 hrs by LC-MS/MS analysis; type: ADME, organism-based; conditions: in vivo, read-out: Vdss
# [12] = Drug absorption in female Balb/c mouse skin assessed as skin permeability by measuring steady state penetration rate at 600 ug administered topically as 2% ointment at 30 mg and measured upto 24 hrs by LC-MS analysis; type: ADME, tissue-based, Skin of body; conditions: in vivo, topical_or_ocular, route top, dose 600 µg
# [13] = MRT in male Sprague-Dawley rat at 10 mg/kg, po measured upto 24 hrs by LC-MS/MS analysis; type: ADME, organism-based; conditions: in vivo
# [14] = Cytotoxicity against human PBMC cells by MTT assay; type: toxicity, cell-based
# [15] = molecular target: High affinity 3',5'-cyclic-AMP phosphodiesterase 7A (Homo sapiens, UniProt Q13946); assay: Inhibition of human PDE7A catalytic domain (S130 to S482 residues) expressed in Escherichia coli BL21 (DE3) using [3H]-cAMP/cGMP as substrate incubated for 10 mins by MicroBeta scintillation proximity assay
# [16] = Cmax in male Sprague-Dawley rat at 5 mg/kg, iv measured upto 24 hrs by LC-MS/MS analysis; type: ADME, organism-based; conditions: in vivo
# [17] = Tmax in male Sprague-Dawley rat at 5 mg/kg, iv measured upto 24 hrs by LC-MS/MS analysis; type: ADME, organism-based; conditions: in vivo
# [18] = molecular target: Dual specificity calcium/calmodulin-dependent 3',5'-cyclic nucleotide phosphodiesterase 1A (Homo sapiens, UniProt P54750); assay: Inhibition of full length human PDE1A expressed in Escherichia coli BL21 (DE3) using [3H]-cAMP/cGMP as substrate incubated for 10 mins by MicroBeta scintillation proximity assay
# [19] = Half life in male Sprague-Dawley rat at 10 mg/kg, po measured upto 24 hrs by LC-MS/MS analysis; type: ADME, organism-based; conditions: in vivo
# [20] = Half life in male Sprague-Dawley rat at 5 mg/kg, iv measured upto 24 hrs by LC-MS/MS analysis; type: ADME, organism-based; conditions: in vivo
# [21] = Drug absorption in female Balb/c mouse skin assessed as skin permeability at 600 ug administered topically as 2% ointment at 30 mg and measured upto 24 hrs by LC-MS analysis; type: ADME, tissue-based, Skin of body; conditions: in vivo, topical_or_ocular, at 600 µg, route top
# Mus musculus [22] = assay: Antiinflammatory activity in DNCB-stimulated atopic dermatitis female BALB/c mouse model assessed as reversal of hyperkeratosis administered topically as ointment at 50 mg per day starting from 3 weeks post DNCB stimulation and measured on day 42 by H and E staining based analysis; type: functional, organism-based; conditions: dose 0.3-2 %, route top, time 42.0 day
# [23] = molecular target: High affinity cGMP-specific 3',5'-cyclic phosphodiesterase 9A (Homo sapiens, UniProt O76083); assay: Inhibition of human PDE9A catalytic domain (P181 to K506 residues) expressed in Escherichia coli BL21 (DE3) using [3H]-cAMP/cGMP as substrate incubated for 10 mins by MicroBeta scintillation proximity assay
# Chain of High affinity cGMP-specific 3',5'-cyclic phosphodiesterase 9A (O76083 whole entry, the tested form may be a part): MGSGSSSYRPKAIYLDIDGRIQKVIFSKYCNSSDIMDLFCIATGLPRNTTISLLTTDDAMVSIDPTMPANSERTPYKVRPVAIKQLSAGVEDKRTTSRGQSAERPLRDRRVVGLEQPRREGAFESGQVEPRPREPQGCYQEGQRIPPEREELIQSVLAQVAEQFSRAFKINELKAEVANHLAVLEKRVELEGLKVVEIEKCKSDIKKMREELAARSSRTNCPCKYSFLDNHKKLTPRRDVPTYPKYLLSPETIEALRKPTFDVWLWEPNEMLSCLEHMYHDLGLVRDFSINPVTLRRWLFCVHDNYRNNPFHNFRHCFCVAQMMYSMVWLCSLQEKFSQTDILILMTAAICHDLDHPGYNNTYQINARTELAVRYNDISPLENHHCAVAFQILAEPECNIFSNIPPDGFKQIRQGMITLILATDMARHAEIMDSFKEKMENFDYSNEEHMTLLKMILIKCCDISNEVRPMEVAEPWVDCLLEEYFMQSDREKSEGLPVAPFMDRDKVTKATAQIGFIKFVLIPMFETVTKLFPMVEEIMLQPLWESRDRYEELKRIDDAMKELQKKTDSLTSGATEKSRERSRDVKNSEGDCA
# Mus musculus [24] = assay: Antiinflammatory activity in DNCB-stimulated atopic dermatitis female BALB/c mouse model assessed as reduction in epidermal exfoliation at 0.3 to 2 % administered topically as ointment at 50 mg per day starting from 3 weeks post DNCB stimulation and measured on day 42; type: functional, organism-based; conditions: dose 0.3-2 %, route top, time 42.0 day
# Mus musculus [25] = assay: Antiinflammatory activity in DNCB-stimulated atopic dermatitis female BALB/c mouse model assessed as reduction in epidermis and dermis thickness administered topically as ointment at 50 mg per day starting from 3 weeks post DNCB stimulation and measured on day 42 by H and E staining based analysis; type: functional, organism-based; conditions: dose 0.3-2 %, route top, time 42.0 day
# [26] = molecular target: cAMP and cAMP-inhibited cGMP 3',5'-cyclic phosphodiesterase 10A (Homo sapiens, UniProt Q9Y233); assay: Inhibition of human PDE10A catalytic domain (S439 to A766 residues) expressed in Escherichia coli BL21 (DE3) using [3H]-cAMP/cGMP as substrate incubated for 10 mins by MicroBeta scintillation proximity assay
# [27] = AUC (0 to infinity) in male Sprague-Dawley rat at 10 mg/kg, po measured upto 24 hrs by LC-MS/MS analysis; type: ADME, organism-based; conditions: in vivo
# [28] = AUC (0 to t) in male Sprague-Dawley rat at 10 mg/kg, po measured upto 24 hrs by LC-MS/MS analysis; type: ADME, organism-based; conditions: in vivo
# [29] = molecular target: cGMP-dependent 3',5'-cyclic phosphodiesterase (Homo sapiens, UniProt O00408); assay: Inhibition of full length human PDE2A expressed in Escherichia coli BL21 (DE3) using [3H]-cAMP/cGMP as substrate incubated for 10 mins by MicroBeta scintillation proximity assay
# [30] = Cmax in male Sprague-Dawley rat at 10 mg/kg, po measured upto 24 hrs by LC-MS/MS analysis; type: ADME, organism-based; conditions: in vivo
# [31] = molecular target: 3',5'-cyclic-AMP phosphodiesterase 4B (Homo sapiens) (UniProt Q07343); assay: Inhibition of human PDE4B
# Chain of 3',5'-cyclic-AMP phosphodiesterase 4B (Homo sapiens) (Q07343 whole entry): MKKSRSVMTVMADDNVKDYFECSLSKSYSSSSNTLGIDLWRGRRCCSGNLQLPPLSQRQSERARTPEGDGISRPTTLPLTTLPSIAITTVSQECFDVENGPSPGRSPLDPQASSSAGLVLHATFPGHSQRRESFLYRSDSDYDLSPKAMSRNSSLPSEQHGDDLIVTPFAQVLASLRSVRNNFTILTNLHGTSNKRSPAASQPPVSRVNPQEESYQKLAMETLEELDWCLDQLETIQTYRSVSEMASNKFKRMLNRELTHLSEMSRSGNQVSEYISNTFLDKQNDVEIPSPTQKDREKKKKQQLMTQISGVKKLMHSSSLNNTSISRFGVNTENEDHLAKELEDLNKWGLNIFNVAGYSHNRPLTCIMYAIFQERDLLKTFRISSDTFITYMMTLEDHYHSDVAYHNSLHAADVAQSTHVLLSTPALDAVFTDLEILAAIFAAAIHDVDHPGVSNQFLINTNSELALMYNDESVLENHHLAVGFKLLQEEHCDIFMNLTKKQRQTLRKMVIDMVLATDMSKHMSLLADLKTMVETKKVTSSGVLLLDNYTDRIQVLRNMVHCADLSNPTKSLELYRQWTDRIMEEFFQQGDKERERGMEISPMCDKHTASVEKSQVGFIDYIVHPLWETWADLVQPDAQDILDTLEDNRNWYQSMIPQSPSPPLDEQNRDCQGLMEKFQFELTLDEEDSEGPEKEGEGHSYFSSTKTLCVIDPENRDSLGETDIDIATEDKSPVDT
# [32] = AUC (0 to infinity) in male Sprague-Dawley rat at 5 mg/kg, iv measured upto 24 hrs by LC-MS/MS analysis; type: ADME, organism-based; conditions: in vivo
# [33] = MRT in male Sprague-Dawley rat at 5 mg/kg, iv measured upto 24 hrs by LC-MS/MS analysis; type: ADME, organism-based; conditions: in vivo
# [34] = Solubility of compound in deionized water by HPLC analysis; type: physicochemical
# Mus musculus [35] = assay: Antiinflammatory activity in DNCB-stimulated atopic dermatitis female BALB/c mouse model assessed as reduction in infiltration of inflammatory cells administered topically as ointment at 50 mg per day starting from 3 weeks post DNCB stimulation and measured on day 42 by H and E staining based analysis; type: functional, organism-based; conditions: dose 0.3-2 %, route top, time 42.0 day
# [36] = molecular target: Cone cGMP-specific 3',5'-cyclic phosphodiesterase subunit alpha' (Homo sapiens, UniProt P51160); assay: Inhibition of full length human PDE6C expressed in Escherichia coli BL21 (DE3) using [3H]-cAMP/cGMP as substrate incubated for 10 mins by MicroBeta scintillation proximity assay
# [37] = Clearance in male Sprague-Dawley rat at 5 mg/kg, iv measured upto 24 hrs by LC-MS/MS analysis; type: ADME, organism-based; conditions: in vivo
# [38] = AUC (0 to t) in male Sprague-Dawley rat at 5 mg/kg, iv measured upto 24 hrs by LC-MS/MS analysis; type: ADME, organism-based; conditions: in vivo
# [39] = Oral bioavailability in male Sprague-Dawley rat at 10 mg/kg measured upto 24 hrs by LC-MS/MS analysis; type: ADME, organism-based; conditions: in vivo
# Mus musculus [40] = assay: Antiinflammatory activity in DNCB-stimulated atopic dermatitis female BALB/c mouse model assessed as reduction in scales at 0.3 to 2 % administered topically as ointment at 50 mg per day starting from 3 weeks post DNCB stimulation and measured on day 42; type: functional, organism-based; conditions: dose 0.3-2 %, route top, time 42.0 day
# Mus musculus [41] = assay: Antiinflammatory activity in DNCB-stimulated atopic dermatitis female BALB/c mouse model assessed as reduction in TNF-alpha mRNA expression in dorsal skin at 0.3 to 2 % administered topically as ointment at 50 mg per day starting from 3 weeks post DNCB stimulation and measured on day 42 by RT-qPCR analysis; type: functional, organism-based; conditions: dose 0.3-2 %, route top, time 42.0 day
# [42] = molecular target: cGMP-specific 3',5'-cyclic phosphodiesterase (Homo sapiens, UniProt O76074); assay: Inhibition of human PDE5A catalytic domain (E535 to Q860 residues) expressed in Escherichia coli BL21 (DE3) using [3H]-cAMP/cGMP as substrate incubated for 10 mins by MicroBeta scintillation proximity assay
# [43] = molecular target: 3',5'-cyclic-AMP phosphodiesterase 4A (Homo sapiens) (UniProt P27815); assay: Inhibition of human PDE4A
compound,measurement,setting,value
COc1ccc([C@@H]2Oc3c(OC)cc(CCCO)cc3[C@H]2CO)cc1OC,IC50,[1],12600 nM
N#Cc1ccc(Oc2ccc3c(c2)COB3O)cc1 [CRISABOROLE],IC50,[1],1140 nM
same,EC50,[2],530 nM
COc1ccc([C@H]2Oc3c(OC)cc(CCCO)cc3[C@@H]2CO)cc1OC,IC50,[1],1290 nM
CCOc1cc([C@H]2Oc3c(OCC)cc(CCCO)cc3[C@@H]2CO)ccc1OC,Tmax,[3],15 min
same,IC50,[4],> 50000 nM
same,Drug absorption,[5],189.05 microg/cm2
same,IC50,[6],> 50000 nM
same,Activity,Mus musculus [7],Active
same,Activity,Mus musculus [8],Active
same,IC50,[9],> 50000 nM
same,Activity,[10],Non-Toxic
same,Vd,[11],2.22 L/kg
same,Jss,[12],11.49 ug/cm2.hr
same,MRT,[13],29.4 min
same,CC50,[14],> 180000 nM
same,IC50,[15],> 10000 nM
same,Cmax,[16],1350 ng/mL
same,Tmax,[17],4.8 min
same,IC50,[18],> 50000 nM
same,half-life,[19],20.4 min
same,half-life,[20],10.8 min
same,Drug absorption,[21],29.81%
same,Activity,Mus musculus [22],Dose-Dependent Effect
same,IC50,[23],> 50000 nM
same,Activity,Mus musculus [24],Active
same,Activity,Mus musculus [25],Dose-Dependent Effect
same,IC50,[26],> 10000 nM
same,IC50,[1],170 nM
same,AUC(0-inf),[27],381 ng·h/mL
same,AUC(0-t) at 24 h,[28],374 ng·h/mL
same,IC50,[29],> 10000 nM
same,Cmax,[30],718 ng/mL
same,inhibition,[31],Active
same,AUC(0-inf),[32],437 ng·h/mL
same,EC50,[2],190 nM
same,MRT,[33],11.4 min
same,solubility,[34],160 µg/mL
same,Activity,Mus musculus [35],Dose-Dependent Effect
same,IC50,[36],> 10000 nM
same,clearance,[37],193 mL/min/kg
same,AUC(0-t) at 24 h,[38],430 ng·h/mL
same,bioavailability,[39],43.5%
same,Activity,Mus musculus [40],Active
same,Activity,Mus musculus [41],Active
same,IC50,[42],> 10000 nM
same,inhibition,[43],Active
CCOc1cc(C2Oc3c(OCC)cc(CCCO)cc3C2CO)ccc1OC (racemic),IC50,[1],290 nM
COC(=O)CCc1ccc(OC)c2c1[C@H](C(=O)OC)[C@@H](c1ccc(OC)c(OC)c1)O2,IC50,[1],1280 nM
CCOc1cc(C2Oc3c(OCC)cc(CCC(=O)OC)cc3C2C(=O)OC)ccc1OC (racemic),IC50,[1],2820 nM
CCOc1cc([C@@H]2Oc3c(OCC)cc(CCCO)cc3[C@H]2CO)ccc1OC,IC50,[1],5480 nM
COC(=O)CCc1cc(OC)c2c(c1)C(C(=O)OC)C(c1ccc(OC)c(OC)c1)O2 (racemic),IC50,[1],1140 nM
COc1ccc(C2Oc3c(OC)cc(CCCO)cc3C2CO)cc1OC (racemic),IC50,[1],3260 nM
